Results as given in US20010028879A1, “Inhibition of graft versus host disease” (priority 1998, published 2001).
Where two headings read alike, the source gives them in different places.

System: Peripheral human blood mononuclear cells PBMCs
Conditions: for Cytokine Profile: after 7 days
Method: Peripheral human blood mononuclear cells PBMCs, which is a collection of white blood cells comprising about 40% T-cells, were stressed by contact with aqueous solutions of hydrogen peroxide, of various concentrations, for 20 minutes. Their immediate survival was measured, along with their immediate phytohaemagglutinin (PHA) response. Then their survival after 24 hours was measured, followed by their PHA response (tritiated thymidine uptake following mitogenic stimulation with PHA) and cytokine profile after 7 days.

`OO` [Example H2O2, hydrogen peroxide] was tested, and the “24 hr survival %” value (100 μmole/L H2O2, 20 minutes) was 100%, the “Immediate PHA response” value (100 μmole/L H2O2, 20 minutes) was 2000 and the Immediate survival % (100 μmole/L H2O2, 20 minutes) was 80-90%. For the same molecule, the “Cytokine Profile” value (100 μmole/L H2O2, 20 minutes) was “IFN↓”, the “24 hr survival %” value (300 μmole/L H2O2, 20 minutes) was 50% and the “Immediate PHA response” value (300 μmole/L H2O2, 20 minutes) was 2000. The Immediate survival % (300 μmole/L H2O2, 20 minutes) was 80-90%, the “Cytokine Profile” value (300 μmole/L H2O2, 20 minutes) was “IFN↓” and the “24 hr survival %” value (1 mmole/L H2O2, 20 minutes) was 40%. The “Immediate PHA response” value (1 mmole/L H2O2, 20 minutes) was 400, the Immediate survival % (1 mmole/L H2O2, 20 minutes) was 80-90% and the “Cytokine Profile” value (1 mmole/L H2O2, 20 minutes) was “IFN↓”. For the same molecule, the “24 hr survival %” value (3 mmole/L H2O2, 20 minutes) was 40%, the “Immediate PHA response” value (3 mmole/L H2O2, 20 minutes) was 400 and the Immediate survival % (3 mmole/L H2O2, 20 minutes) was 80-90%. The “Cytokine Profile” value (3 mmole/L H2O2, 20 minutes) was “IFN↓”.
